Each structure is given as a SMILES string. The source made the active and inactive calls. No stated cut-off is given here; in the data, actives have a measured IC50 and inactives only a lower limit.

The IC50 is the concentration at which inhibition is half-maximal.

Sequence of Envelope glycoprotein gp160 (Q6QLK5 whole entry, the tested form may be a part): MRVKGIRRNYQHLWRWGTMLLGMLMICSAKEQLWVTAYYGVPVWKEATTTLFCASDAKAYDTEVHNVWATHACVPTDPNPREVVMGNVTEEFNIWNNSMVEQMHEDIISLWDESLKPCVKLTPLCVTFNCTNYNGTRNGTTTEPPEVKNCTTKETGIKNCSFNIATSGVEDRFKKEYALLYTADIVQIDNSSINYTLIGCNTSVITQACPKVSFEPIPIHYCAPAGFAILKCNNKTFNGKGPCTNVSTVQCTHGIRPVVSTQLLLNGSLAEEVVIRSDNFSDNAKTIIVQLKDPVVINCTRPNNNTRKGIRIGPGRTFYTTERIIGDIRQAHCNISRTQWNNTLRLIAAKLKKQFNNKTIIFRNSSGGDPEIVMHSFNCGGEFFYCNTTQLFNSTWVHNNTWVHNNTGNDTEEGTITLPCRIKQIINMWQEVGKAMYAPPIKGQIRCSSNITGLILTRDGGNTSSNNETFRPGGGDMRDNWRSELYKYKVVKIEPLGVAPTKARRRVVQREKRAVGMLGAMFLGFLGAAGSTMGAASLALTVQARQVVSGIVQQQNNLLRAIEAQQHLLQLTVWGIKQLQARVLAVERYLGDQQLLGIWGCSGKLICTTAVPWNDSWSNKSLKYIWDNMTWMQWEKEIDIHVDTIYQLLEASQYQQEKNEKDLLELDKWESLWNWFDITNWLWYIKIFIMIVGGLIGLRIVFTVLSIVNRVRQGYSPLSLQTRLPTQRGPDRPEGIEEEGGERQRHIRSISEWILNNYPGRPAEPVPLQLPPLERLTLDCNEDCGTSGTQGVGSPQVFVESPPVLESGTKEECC

The assay concerns the target Envelope glycoprotein gp160 (Human immunodeficiency virus 1, UniProt Q6QLK5). The assay can be described thus: inhibitors of HIV fusion peptide binding, primary screen, biochemical, uHTS, fluorescence dequenching (AID 1986).
`CC(C)(C)c1cc(-c2csc(Nc3ccccc3)[n+]2Cc2ccc(C(=O)O)cc2)cc(C(C)(C)C)c1O`: the IC50 is 12.9 µM (active).
On to `Cc1c(CC(=O)O)c(=O)oc2c(C)c3occ(-c4ccc(Br)cc4)c3cc12`, for which the IC50 was 27.6 µM (active).
The result for `Cc1cc(/C=C2\C(=N)N3N=C(S(C)(=O)=O)SC3=NC2=O)c(C)n1Cc1ccccc1` reads 26.2 µM (active).
The result for `O=C(O)CN1C(=O)/C(=C\c2cc(Br)ccc2OCc2ccc([N+](=O)[O-])cc2)SC1=S` reads 10.1 µM (active).
